Here are results for eight compounds from patent US20040121946A9, “Inducing cellular immune responses to her2/neu using peptide and nucleic acid compositions” (priority 2002, published 2004).

Test [1] relates to HLA-DR molecules (DR1, DR4w4, DR7, DRB5*0101, DRB1*1501, DRB1*1101, DRB1*0802, DRB1*1302). The test can be described thus: DR supertype cross-reactive binding. Set-up: species or system human. Particulars: for DR147 Cross-binding: number of DR1, DR4w4, DR7 bound, Table XXVIII.
Another test concerns the target DRB1*0301 (DR3) (Homo sapiens, UniProt P01903+P01911, A100K/A102G/A103R/A169T/F55Y/I96L/K41T/L162R/M171V/P40S/Q125H/Q178H/Q39Y/R42S/S66N/T106N/T262R/W38E/Y61H). The test can be described thus: HLA class II peptide binding assay, purified HLA. Particulars: unit not given.
[2] abbreviates: Table XIX, DR supermotif peptides.
Setting [3] is: Table XXa, DR 3a motif peptides.

Chain of DRB1*0301 (DR3) (P01903 26-254 limits assumed, other chains not shown): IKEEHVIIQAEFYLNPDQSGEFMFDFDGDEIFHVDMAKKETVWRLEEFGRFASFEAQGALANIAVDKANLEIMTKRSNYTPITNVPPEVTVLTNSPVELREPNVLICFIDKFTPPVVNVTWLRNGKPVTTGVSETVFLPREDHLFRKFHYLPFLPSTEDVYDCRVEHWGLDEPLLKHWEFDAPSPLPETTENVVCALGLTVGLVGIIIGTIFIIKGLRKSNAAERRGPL

On to `CC[C@H](C)[C@H](NC(=O)[C@@H](NC(=O)[C@H](CS)NC(=O)[C@@H](NC(=O)[C@@H]1CCCN1C(=O)[C@@H]1CCCN1C(=O)[C@H](CCC(N)=O)NC(=O)[C@@H]1CCCN1C(=O)[C@H](CC(C)C)NC(=O)[C@H](CCCNC(=N)N)NC(=O)[C@H](CCC(=O)O)NC(=O)CN)[C@@H](C)CC)[C@@H](C)O)C(=O)N[C@@H](CC(=O)O)C(=O)N[C@H](C(=O)N[C@@H](Cc1ccc(O)cc1)C(=O)O)C(C)C`, for which the “DR147 Cross-binding” value in test [1] is given as 0.
Consider `CC[C@H](C)[C@H](NC(=O)CNC(=O)[C@@H](NC(=O)[C@@H](NC(=O)[C@H](C)NC(=O)[C@H](CO)NC(=O)[C@@H](NC(=O)[C@@H](NC(=O)[C@H](CO)NC(=O)[C@@H](NC(=O)[C@@H](N)CC(C)C)[C@@H](C)O)[C@@H](C)CC)[C@@H](C)CC)C(C)C)C(C)C)C(=O)N[C@@H](CC(C)C)C(=O)N[C@@H](CC(C)C)C(=O)N[C@H](C(=O)N[C@H](C(=O)O)C(C)C)C(C)C`, for which, in test [1], the “DR147 Cross-binding” value was found to be 1.
Regarding `CC(C)C[C@H](NC(=O)[C@@H]1CCCN1C(=O)[C@H](C)NC(=O)[C@@H](NC(=O)[C@H](CC(N)=O)NC(=O)[C@H](CO)NC(=O)[C@H](C)NC(=O)[C@@H]1CCCN1C(=O)[C@H](CC(=O)O)NC(=O)CNC(=O)[C@H](CC(=O)O)NC(=O)[C@H](Cc1ccccc1)NC(=O)[C@H](CO)NC(=O)[C@H](CCC(=O)O)NC(=O)[C@@H]1CCCN1)[C@@H](C)O)C(=O)O`, the DR3 binding data at DRB1*0301 (DR3) (setting [2]) and at DRB1*0301 (DR3) (setting [3]) was −0.0027 throughout.
In the case of `CC[C@H](C)[C@H](NC(=O)[C@@H]1CCCN1C(=O)[C@H](CCSC)NC(=O)[C@H](Cc1ccc(O)cc1)NC(=O)[C@H](CO)NC(=O)[C@H](CC(C)C)NC(=O)[C@H](CC(=O)O)NC(=O)[C@@H]1CCCN1C(=O)[C@H](CCCCN)NC(=O)[C@@H](NC(=O)CNC(=O)[C@H](CO)NC(=O)[C@@H]1CCCN1)C(C)C)C(=O)N[C@@H](Cc1c[nH]c2ccccc12)C(=O)N[C@@H](CCCCN)C(=O)O`, the DR3 binding data on DRB1*0301 (DR3) (setting [2]) and on DRB1*0301 (DR3) (setting [3]) was −0.0027 in each case.
Take `CSCC[C@H](NC(=O)[C@H](CC(=O)O)NC(=O)[C@H](CC(=O)O)NC(=O)[C@H](CC(=O)O)NC(=O)[C@H](CCC(=O)O)NC(=O)[C@H](CC(C)C)NC(=O)[C@H](CC(C)C)NC(=O)[C@H](CO)NC(=O)[C@@H](N)CCCNC(=N)N)C(=O)NCC(=O)N[C@@H](CC(=O)O)C(=O)N[C@@H](CC(C)C)C(=O)N[C@H](C(=O)N[C@@H](CC(=O)O)C(=O)N[C@@H](C)C(=O)O)C(C)C`: the DR3 binding data at DRB1*0301 (DR3) (setting [2]) and at DRB1*0301 (DR3) (setting [3]) was 0.0080 each time.
Regarding `CC(C)C[C@H](NC(=O)CNC(=O)[C@H](Cc1c[nH]c2ccccc12)NC(=O)[C@@H](N)CCCNC(=N)N)C(=O)N[C@@H](CC(C)C)C(=O)N[C@@H](CC(C)C)C(=O)N[C@@H](C)C(=O)N[C@@H](CC(C)C)C(=O)N[C@@H](CC(C)C)C(=O)N1CCC[C@H]1C(=O)N1CCC[C@H]1C(=O)NCC(=O)N[C@@H](C)C(=O)N[C@@H](C)C(=O)N[C@@H](CO)C(=O)O`, in test [1], the “DR147 Cross-binding” value is on record as 2. Besides, the “Broad Binding (5/8)” value in test [1] (number of the 8 DR alleles bound) is on record as 6.
As to `CC(C)C[C@H](NC(=O)[C@@H](NC(=O)[C@H](CCC(=O)O)NC(=O)[C@H](Cc1ccccc1)NC(=O)[C@@H](NC(=O)[C@H](CCC(N)=O)NC(=O)[C@H](CC(C)C)NC(=O)[C@H](CCC(N)=O)NC(=O)[C@H](CCC(=O)O)NC(=O)[C@@H]1CCCN1C(=O)[C@H](CCC(N)=O)NC(=O)[C@H](CC(C)C)NC(=O)[C@@H]1CCCN1C(=O)[C@H](C)NC(=O)[C@@H](N)[C@@H](C)O)C(C)C)[C@@H](C)O)C(=O)O`, the DR3 binding data at DRB1*0301 (DR3) (setting [2]) worked out at 0.0023.
`CC(C)C[C@H](NC(=O)[C@H](CCC(N)=O)NC(=O)[C@H](CC(=O)O)NC(=O)[C@H](Cc1c[nH]c2ccccc12)NC(=O)[C@@H]1CCCN1C(=O)[C@@H](NC(=O)[C@@H](NC(=O)[C@H](Cc1c[nH]cn1)NC(=O)[C@@H](N)C(C)C)[C@@H](C)O)C(C)C)C(=O)N[C@@H](Cc1ccccc1)C(=O)N[C@@H](CCCNC(=N)N)C(=O)N[C@@H](CC(N)=O)C(=O)N1CCC[C@H]1C(=O)N[C@@H](Cc1c[nH]cn1)C(=O)N[C@@H](CCC(N)=O)C(=O)O`: the DR3 binding data on DRB1*0301 (DR3) (setting [2]) and on DRB1*0301 (DR3) (setting [3]) was 0.0220 in each case.
